Consider three compounds from article PMC12648460, “Substitution of CH3 by CH2F in 2‐Methylerythritol Cyclodiphosphate Triggers Potent Inhibition of IspG with Concomitant Fluoride Ion Expulsion” (Chemistry (Weinheim an Der Bergstrasse, Germany), 2025).

What all share (type): biochemical
Assay [1] deals with T1, IspG (GcpE) (Escherichia coli, UniProt P62620).
T1 construct: active dimeric form
Put plainly: anaerobic NADPH consumption assay, preincubation with reduction system.

The target of assay [2] is T1, IspG (GcpE). Put plainly: anaerobic NADPH consumption assay of purified IspG with […] MEcPP.
The target in assay [3] is T1, IspG (GcpE). The assay is described as follows: anaerobic NADPH consumption assay ([…] nm), […] min preincubation with reduction system; […]-NMR of fluoride release.

T1 sequence (P61949 2-176): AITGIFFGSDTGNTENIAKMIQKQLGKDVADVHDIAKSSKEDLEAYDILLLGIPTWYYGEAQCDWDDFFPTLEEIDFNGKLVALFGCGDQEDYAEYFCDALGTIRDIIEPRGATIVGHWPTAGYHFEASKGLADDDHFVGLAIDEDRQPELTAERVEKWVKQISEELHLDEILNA
T1 sequence (P28861 2-248, further chain): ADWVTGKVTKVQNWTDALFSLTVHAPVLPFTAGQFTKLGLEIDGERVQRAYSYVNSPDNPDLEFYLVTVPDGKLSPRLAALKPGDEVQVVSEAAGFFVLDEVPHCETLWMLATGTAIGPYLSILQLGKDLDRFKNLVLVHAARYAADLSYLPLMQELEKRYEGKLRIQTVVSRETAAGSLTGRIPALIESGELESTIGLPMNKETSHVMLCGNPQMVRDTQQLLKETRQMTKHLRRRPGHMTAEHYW
T1 sequence (P62620 whole entry): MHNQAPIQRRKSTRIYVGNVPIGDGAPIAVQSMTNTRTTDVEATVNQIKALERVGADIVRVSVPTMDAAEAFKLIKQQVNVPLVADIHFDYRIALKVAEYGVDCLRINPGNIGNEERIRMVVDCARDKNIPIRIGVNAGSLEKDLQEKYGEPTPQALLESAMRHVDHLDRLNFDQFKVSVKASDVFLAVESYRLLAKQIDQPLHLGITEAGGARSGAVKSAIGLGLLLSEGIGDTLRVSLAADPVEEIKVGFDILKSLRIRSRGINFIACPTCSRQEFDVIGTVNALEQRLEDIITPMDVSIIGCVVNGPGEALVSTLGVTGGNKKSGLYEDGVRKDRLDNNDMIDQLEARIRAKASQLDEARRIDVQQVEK

In general, IC50 refers to the concentration that gives 50% inhibition. Turning to `C=C[C@@]1(CO)OP(=O)(O)OP(=O)(O)OC[C@H]1O` [VEcPP, 2-C-vinyl-D-erythritol cyclodiphosphate], the IC50 against IspG (GcpE) [1] came to 19.5 ± 1.3 µM.
Turning to `C[C@@]1(CO)OP(=O)(O)OP(=O)(O)OC[C@H]1O` [compound 1, 2-C-methyl-D-erythritol 2,4-cyclodiphosphate], on IspG (GcpE) [2], the “anaerobic NADPH consumption assay of purified IspG with 250 μM MEcPP” value is given as ~ 200 nmol min−1 mg−1.
On IspG (GcpE) [3], `O=P1(O)OC[C@@H](O)[C@@](CO)(CF)OP(=O)(O)O1` [compound 8, monofluoromethyl-D-erythritol cyclodiphosphate] returned a concentration for half-maximal inhibition (IC50) of 10.4 ± 1 µM.
